Assay [1] relates to PC-3 cells. The experiment in a line: alamarBlue cytotoxicity assay, PC-3. Format: cell-based, human. To be noted: PC-3, alamarBlue. Here is the method: (§1) Cytotoxicity Assays. Cell culture cytotoxicity assays were performed using the. alamarBlue method, as described by Ahmed et al., J. Immun. Methods 1994, 170, 211-224, which is incorporated herein by reference. Briefly, aliquots of 100 μL of cell suspension (1.0-2.5×10^3 cells) was placed in 96-well microtiter plates in an atmosphere of 5% CO2 at 37° C. After 24 hours, 100 μL of culture medium and 2 μL of compound in vehicle (culture media with 40% pyridine) or vehicle alone were added, and the plates incubated an additional 72 hours. The final pyridine concentration in all cases was 0.4%; at this pyridine concentration there was no affect on the growth of cells compared to cells in culture media without added pyridine. […] After the culture media had been removed from each well, 200 μL of fresh media and 20 μL of 90% alamarBlue reagent were added, followed by an additional 6 h incubation. The fluorescent intensity was measured using a Spectrafluor Plus plate reader with excitation at 530 nm and emission at 590 nm. Results are reported as IC50 values, the average concentration required to produce a decrease of fluorescent intensity of 50% relative to vehicle-treated controls in two separate determinations.
(Alamar Blue is a resazurin reagent that responds to reducing activity.)

Assay [2] has as its system gram-positive or gram negative bacteria. To be noted: gram-positive or gram negative bacteria, concentrations as large as 250 μM; cited from earlier work.
The test system of assay [3] is SK-N-MC. The experiment in a line: alamarBlue cytotoxicity assay, SK-N-MC. It is filed as cell-based. To be noted: Homo sapiens. The method, then: as §1
The subject of assay [4] is methicillin-resistant S. aureus ATCC 43300. Kind of assay: Antimicrobial bioassay, methicillin-resistant S. aureus. Format: cell-based, Staphylococcus aureus. The method, then: (§2) Antimicrobial Bioassay: Staphylococcus aureus ATCC 29213 and methicillin-resistant S. aureus ATCC 43300 (MRS) were obtained from the American Type Culture Collection (Rockville, Md.) and stored on agar slants at 4° C. until needed. Susceptibility testing was performed using a modified version of the NCCLS methods: “Methods for Dilution Antimicrobial Susceptibility Tests for Bacteria that Grow Aerobically,” M7-A4, Vol. 17, No. 2, NCCLS, (1997) and “Reference Method for Broth Dilution Antifungal Susceptibility Testing of Yeasts; Approved Standard,” M27-A, Vol. 17, No. 9, NCCLS, (1997), both of which are incorporated herein by reference. Microorganisms were subcultured prior to the assay by suspending cells from the slant in Eugon broth (BBL, Maryland) and incubating for 24 hours at 37° C. Inocula were prepared by diluting the subcultured organism in its incubation broth after comparison to the 0.5 McFarland Standard (a BaSO4 suspension) to afford final inocula ranges of S. aureus: 1.0-5.0×10^5 and MRS: 0.2-6.0×10^5 CFU/ml. Test compounds were dissolved in DMSO, serially-diluted using normal saline, and transferred in duplicate to 96 well flat-bottomed microtiter plates. The microbial inocula were added to the samples to achieve a final volume of 200 μl and final compound concentrations starting with 50 μg/ml. Drug [Ciprofloxacin (ICN Biomedicals, Ohio)] as well as growth and blank (media only) controls were added to each test plate. Plates were read at 630 nm using the EL-340 Biokinetics Reader (Bio-Tek Instruments, Vermont) prior to and after incubation at 37° C. for 24 hours. Percent growth was calculated and plotted versus concentration to afford the IC50, or sample concentration that affords 50% growth of the organism relative to controls.

The test system of assay [5] is MDA-231. The experiment in a line: alamarBlue cytotoxicity assay, MDA-231. Conditions: Homo sapiens, MDA-MB-231; MDA-231, alamarBlue. Format: cell-based. Here is the method: as §1
Assay [6] relates to double-stranded DNA oligonucleotide. Kind of assay: DNA binding by ESI-MS. Also on record: key: MetalDepend.: all ligand-DNA complex ions also contained a metal ion.; None: no ligand-DNA complex ions observed.; MetalIndepend.: ligand-DNA and ligand-DNA-metal ion complex ions observed. Conditions: ligand-DNA complex ions, presence or absence of added NiCl2.
Assay [7] has as its system SK-N-F1. Kind of assay: alamarBlue cytotoxicity assay, SK-N-F1. It is filed as cell-based. Here is the method:
as §1

Assay [8] in a line: Metal ion binding by continuous variation, Mg2+. Conditions: Mg^2+, methanol, 1:1 complex. The method, then:
(§3) Previous work indicated the metal ion binding mechanism of UK-1, so the method of continuous variation was used to determine the ability of selected UK-1analogues to bind a variety of metal ions. Methanolic solutions of UK-1 or UK-1 analogues and metal ion salts [Ca(NO3)2, Mg(NO3)2, Zn(NO3)2, or Fe(NO3)3] at various molar ratios, and 20 μM combined total concentration, were prepared and the absorbance at 418 nm was determined. […] Compound 2.1 does bind with Ca^2+ and Zn^2+ better than UK-1.
(§4) Continuous variation plots. A 100 μM solution of UK-1 or analogue and 100 AM solutions of Ca(NO3)2, Mg(NO3)2, Zn(NO3)2, or Fe(NO3)3 were prepared in methanol. From these stock solutions, 15 samples (1 mL) of varying mole fraction of the metal ion were prepared at a constant, combined concentration of 20 μM for the ligand and the metal ion. The change in absorbance was monitored from 500 to 200 nm for each sample using as a reference a 1 mL solution containing the same concentration of ligand as the sample being measured but without the metal ion. The maximum absorbance change was typically around 418 nm but varied somewhat for each metal ion. The absorbance at 418 nm was plotted as a function of the mole fraction of the metal ion and the maximum absorbance change was determined. The absorbance of a sample containing the metal ion concentration corresponding to this maximum change and a 15 fold excess of metal ion at this ligand concentration, subtracted from a reference containing the same concentration of ligand but no metal ion was used to normalize the curve and obtain the conditional formation constant as described in the paper to Likussar, W.; Boltz, D. F. Anal. Chem. 1971, 43, 1265-1272, which is incorporated herein by reference.

The nature of assay [9]: Metal ion binding by continuous variation, Zn2+. To be noted: Zn^2+, methanol, 1:1 complex. Here is the method:
as §3, §4

Assay [10] concerns HT-29 cells. The experiment in a line: alamarBlue cytotoxicity assay, HT-29. Conditions: Homo sapiens; HT-29, alamarBlue, 72 h. It is filed as cell-based. The method, then: as §1
For assay [11], the system named is SKBR3. Kind of assay: alamarBlue cytotoxicity assay, SKBR3. To be noted: Homo sapiens, SK-BR-3. Format: cell-based. Here is the method: as §1
Assay [12] has as its system Staphylococcus aureus ATCC 29213. The experiment in a line: Antimicrobial bioassay, S. aureus. Format: cell-based. Conditions: Staphylcoccus aureus, concentrations up to 50 μg/mL. The method, then: as §2

Each structure is given as a SMILES string. Some results are limits rather than exact numbers.

For `COC(=O)c1cccc2oc(-c3cccc4oc(-c5ccccc5O)nc34)nc12` [UK-1], the IC50 (usually the midpoint of a concentration-inhibition curve) in assay [1] (Homo sapiens, PC-3, 72 h) was 400 nM; in [1] (72 h) it was 320 nM; in assay [3], 1100 nM; in [4] (Staphylococcus aureus, ATCC43300, Methacilline-resistant Staph. Aureus, growth inhibited by 50%, read-out: Staph. aureus IC50) it was more than 50 µg/mL; in assay [5], 500 nM; in [7] it was 7000 nM. The IC50 is 65000 nM in [10] and 100 nM in assay [11]. In addition, in assay [2], the growth inhibition entry is on record as “does not inhibit the growth”. Besides, the antibacterial effect entry in assay [4] (methicillin-resistant S. aureus, concentrations up to 50 μg/mL) is on record as “no indication of any antibacterial effect”; in assay [12], “no indication of any antibacterial effect”. In addition, the “DNA-Binding ESI-MS” value in [6] is recorded as “MetalDepend.^d”. For the same molecule, the “Association constant for metal ion binding” value in assay [8] and in assay [9] was 2e+06 M⁻¹ throughout.
